The results in this text go back to ChEMBL document CHEMBL4402585 (J Med Chem, 2020).

Experiment [1] addresses T1, Bromodomain-containing protein 4 (Homo sapiens, UniProt O60885). Nature of the experiment: Inhibition of SGRG-K(Ac)-GG-K(Ac)-GLG-K(Ac)-GGA-K(Ac)-RHRKVGG-K-Biotin binding to N-terminal His6-tagged BRD4 bromodomain 1 (49 to 170 residues) (unknown origin) expressed in Escherichia coli BL21 (DE3) preincubated for 15 mins followed by biotin-labeled H4 peptide addition and measured after 10 mins by Alphascreen assay.

Experiment [2] has as its target T1, Bromodomain-containing protein 4. The experiment is described as follows: Inhibition of SGRG-K(Ac)-GG-K(Ac)-GLG-K(Ac)-GGA-K(Ac)-RHRKVGG-K-Biotin binding to N-terminal His6-tagged BRD4 bromodomain 2 (344 to 455 residues) (unknown origin) expressed in Escherichia coli BL21 (DE3) preincubated for 15 mins followed by biotin-labeled H4 peptide addition and measured after 10 mins by Alphascreen assay.

Experiment [3] has the same target.
Description: Binding affinity to N-terminal His6-tagged BRD4 bromodomain 1 (49 to 170 residues) (unknown origin) expressed in Escherichia coli BL21 (DE3) assessed as change in melting temperature at 1:100 molar ratio by SYPRO orange dye based fluorescence thermal shift assay
Experiment [4] deals with Histone acetyltransferase p300 (Homo sapiens, UniProt Q09472). Nature of the experiment: Inhibition of MSGRGK(Ac)-GGK(Ac)GLGK(Ac)GGAKRHR-biotin binding to EP300 (1040 to 1160 residues) (unknown origin) expressed in Escherichia coli BL21 (DE3) by Alphascreen assay.
A further experiment has as its system MV4-11. The experiment is described as follows: Antiproliferative activity against human MV4-11 cells assessed as reduction in cell viability measured after 72 hrs by Celltitre-glo luminescence assay. Format: functional, cell-based. As to conditions: MV4-11, 72 h.

pIC50: −log10 of the molar value. A value given as a limit tells only on which side of the number the result lay.

Histone acetyltransferase p300, sequence (Q09472 whole entry, the tested form may be a part): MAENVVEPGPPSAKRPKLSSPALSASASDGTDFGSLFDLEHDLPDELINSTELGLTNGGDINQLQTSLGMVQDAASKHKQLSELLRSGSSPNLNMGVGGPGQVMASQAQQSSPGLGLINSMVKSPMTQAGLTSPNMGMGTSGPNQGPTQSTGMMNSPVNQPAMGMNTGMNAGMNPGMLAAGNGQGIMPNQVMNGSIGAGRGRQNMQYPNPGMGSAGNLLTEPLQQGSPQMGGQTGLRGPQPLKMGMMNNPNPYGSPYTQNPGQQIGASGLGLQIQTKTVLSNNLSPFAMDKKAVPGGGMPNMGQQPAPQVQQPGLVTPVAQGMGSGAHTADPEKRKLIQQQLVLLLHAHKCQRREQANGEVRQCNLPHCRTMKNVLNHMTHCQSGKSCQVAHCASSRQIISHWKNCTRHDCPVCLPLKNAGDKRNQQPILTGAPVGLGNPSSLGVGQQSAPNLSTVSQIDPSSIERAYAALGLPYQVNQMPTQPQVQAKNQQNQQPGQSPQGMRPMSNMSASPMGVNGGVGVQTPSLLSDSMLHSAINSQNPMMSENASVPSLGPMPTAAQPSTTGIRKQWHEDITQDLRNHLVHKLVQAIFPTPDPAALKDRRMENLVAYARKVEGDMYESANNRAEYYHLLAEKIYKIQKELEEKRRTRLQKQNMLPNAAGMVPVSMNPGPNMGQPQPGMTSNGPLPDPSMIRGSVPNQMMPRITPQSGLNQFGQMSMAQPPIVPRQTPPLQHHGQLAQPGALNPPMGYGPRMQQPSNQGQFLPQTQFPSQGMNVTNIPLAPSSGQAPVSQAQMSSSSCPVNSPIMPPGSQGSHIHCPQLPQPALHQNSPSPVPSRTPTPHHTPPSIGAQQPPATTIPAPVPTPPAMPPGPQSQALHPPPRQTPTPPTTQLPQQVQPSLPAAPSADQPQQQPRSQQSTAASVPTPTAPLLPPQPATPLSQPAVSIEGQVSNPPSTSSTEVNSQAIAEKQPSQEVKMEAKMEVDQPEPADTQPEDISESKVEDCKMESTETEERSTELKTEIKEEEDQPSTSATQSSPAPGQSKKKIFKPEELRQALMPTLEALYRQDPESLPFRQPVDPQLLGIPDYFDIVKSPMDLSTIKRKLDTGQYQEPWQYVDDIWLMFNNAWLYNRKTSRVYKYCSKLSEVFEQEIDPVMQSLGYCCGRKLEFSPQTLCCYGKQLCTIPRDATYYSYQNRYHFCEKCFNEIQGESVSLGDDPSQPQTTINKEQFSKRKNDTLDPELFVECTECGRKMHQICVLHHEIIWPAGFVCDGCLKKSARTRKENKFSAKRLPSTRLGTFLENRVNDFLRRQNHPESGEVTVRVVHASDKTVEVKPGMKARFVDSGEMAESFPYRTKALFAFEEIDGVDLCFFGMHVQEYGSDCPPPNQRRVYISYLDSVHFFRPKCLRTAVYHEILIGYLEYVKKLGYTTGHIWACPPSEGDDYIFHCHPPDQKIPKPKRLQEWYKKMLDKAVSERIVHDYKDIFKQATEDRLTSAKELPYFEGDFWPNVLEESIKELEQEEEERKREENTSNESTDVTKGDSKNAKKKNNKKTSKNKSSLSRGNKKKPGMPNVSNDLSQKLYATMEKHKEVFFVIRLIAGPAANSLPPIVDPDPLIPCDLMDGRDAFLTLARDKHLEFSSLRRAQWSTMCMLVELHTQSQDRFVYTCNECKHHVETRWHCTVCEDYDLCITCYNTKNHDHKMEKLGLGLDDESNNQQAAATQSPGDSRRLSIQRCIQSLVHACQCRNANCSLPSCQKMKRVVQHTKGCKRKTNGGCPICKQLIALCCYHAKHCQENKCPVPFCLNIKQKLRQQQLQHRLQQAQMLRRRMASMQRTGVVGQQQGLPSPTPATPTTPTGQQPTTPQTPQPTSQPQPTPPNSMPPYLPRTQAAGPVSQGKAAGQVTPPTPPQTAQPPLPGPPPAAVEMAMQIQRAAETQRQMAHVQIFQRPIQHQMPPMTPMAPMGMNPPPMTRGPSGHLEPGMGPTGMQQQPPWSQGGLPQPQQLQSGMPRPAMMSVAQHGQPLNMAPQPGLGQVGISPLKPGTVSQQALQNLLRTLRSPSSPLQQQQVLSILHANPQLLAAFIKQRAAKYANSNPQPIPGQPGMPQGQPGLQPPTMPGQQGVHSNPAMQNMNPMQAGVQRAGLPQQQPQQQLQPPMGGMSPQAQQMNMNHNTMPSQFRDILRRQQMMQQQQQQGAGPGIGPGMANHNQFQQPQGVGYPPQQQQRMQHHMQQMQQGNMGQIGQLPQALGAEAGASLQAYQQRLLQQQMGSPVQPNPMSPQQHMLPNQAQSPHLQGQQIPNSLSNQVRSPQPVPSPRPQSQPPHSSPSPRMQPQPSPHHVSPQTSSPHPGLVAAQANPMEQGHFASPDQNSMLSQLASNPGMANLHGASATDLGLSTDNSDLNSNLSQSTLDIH

In the case of `Cc1cc(-c2cc(NS(C)(=O)=O)ccc2Oc2ccccc2)n2ccn(C)c(=O)c12`, the pIC50 in experiment [1] and in experiment [2] was < 5.70 throughout. The ΔTm in experiment [3] is > 1 °C.
Take `Cc1cc(-c2cc(NS(C)(=O)=O)ccc2Oc2ccc(Cl)cc2)n2cc[nH]c(=O)c12`: the pIC50 in experiment [1] is 6.89; in experiment [2], 6.75; in experiment [4], 4.24; in the experiment with MV4-11, 6.93. The ΔTm in experiment [3] is > 1 °C.
Consider `Cc1cc(-c2cc(NS(C)(=O)=O)ccc2OC2CCOCC2)n2cc[nH]c(=O)c12`, for which the pIC50 in experiment [4] is < 4.48; with MV4-11, 6.41. The ΔTm in experiment [3] is > 1 °C.
Regarding `Cc1cc(-c2cc(NS(C)(=O)=O)ccc2Oc2ccccc2)n2c1C(=O)NCC2`, the results for the pIC50 in experiment [1], in experiment [2] and in experiment [4] were 7.12, 6.89 and 4.46, respectively.
Consider `Cc1cc(-c2cc(NS(C)(=O)=O)ccc2OCC(C)(C)C)n2cc[nH]c(=O)c12`, for which the pIC50 in experiment [1] was < 6.00; in experiment [2], 6.17; in experiment [4] it was 4.57. Moreover, the ΔTm in experiment [3] is > 1 °C.
Consider `Cc1cc(-c2cc(NS(C)(=O)=O)ccc2Sc2ccccc2)n2cc[nH]c(=O)c12`, for which, in experiment [4], the pIC50 was < 4.00. For the same compound, the ΔTm in experiment [3] is > 1 °C.
As for `Cc1cc(-c2cc(NS(C)(=O)=O)cnc2Oc2ccc(F)cc2F)n2cc[nH]c(=O)c12`, the results for the negative-log IC50 (pIC50) (in experiment [4]; in the experiment with MV4-11) were < 5.30 and 6.27, respectively. Further, the ΔTm in experiment [3] is > 1 °C.
Consider `Cc1cc(-c2cc(NS(C)(=O)=O)ccc2Cc2ccccc2)n2cc[nH]c(=O)c12`, for which the results for the negative logarithm of the IC50 (pIC50) in experiment [1], in experiment [2] and in experiment [4] were < 6.00, < 6.00 and 4.81, respectively. In addition, the ΔTm in experiment [3] was > 1 °C.
Turning to `Cc1cc(-c2cc(S(C)(=O)=O)cnc2Oc2ccc(F)cc2F)n2cc[nH]c(=O)c12`, the pIC50 in experiment [1] was 6.54; in experiment [2], 6.64; in experiment [4], < 4.48. Further, the ΔTm in experiment [3] was > 1 °C.
Take `CC(=O)Nc1ccc(Oc2ccc(F)cc2F)c(-c2cc(C)c3c(=O)[nH]ccn23)c1`: the figures for the pIC50 in experiment [1], in experiment [2] and in experiment [4] were 6.66, 7.01 and < 4.00, respectively. In addition, the ΔTm in experiment [3] is > 1 °C.
Taken in the same sequence, the figures for `Cc1cc(-c2cc(S(=O)(=O)N(C)C)cnc2Oc2ccc(F)cc2F)n2cc[nH]c(=O)c12` were 6.13, 6.11, < 4.00 and > 1 °C.
Taken in the same sequence, the figures for `Cc1cc(-c2cc(S(C)(=O)=O)ccc2Oc2ccc(F)cc2F)n2cc[nH]c(=O)c12` were 6.87, 6.93, < 4.48 and > 1 °C.
For the compound `Cc1cc(-c2cc(NS(C)(=O)=O)ccc2Nc2ccccc2)n2cc[nH]c(=O)c12`, the pIC50 in experiment [1] was 7.17; in experiment [2], 7.55; in experiment [4], < 4.48; with MV4-11, 6.59. Besides, the ΔTm in experiment [3] was > 1 °C.
For the compound `Cc1cc(-c2cc(S(=O)(=O)N(C)C)ccc2Oc2ccc(F)cc2F)n2cc[nH]c(=O)c12`, the pIC50 in experiment [1] was 6.70; in experiment [2], 7.15; in experiment [4] it was < 4.00. Also, in experiment [3], the ΔTm was > 1 °C.
Taken in the same sequence, the figures for `Cc1cc(-c2cc(S(=O)(=O)NC(C)(C)C)ccc2Oc2ccc(F)cc2F)n2cc[nH]c(=O)c12` were 6.36, 6.38, < 4.00 and > 1 °C.
Taken in the same sequence, the figures for `Cc1cc(-c2cc(S(=O)(=O)NC(C)(C)C)cnc2Oc2ccc(F)cc2F)n2cc[nH]c(=O)c12` were 6.10, 6.32, < 4.00 and > 1 °C.
`Cc1cc(-c2ccccc2Oc2ccccc2)n2cc[nH]c(=O)c12`: the pIC50 in experiment [1] is 5.35; in experiment [2], 5.80. Besides, the ΔTm in experiment [3] is > 1 °C.
Turning to `Cc1cc(Br)n2cc[nH]c(=O)c12`, the ΔTm in experiment [3] amounted to 1.9 °C.
